Columns and labels:
Assay type in all cases: cell-based
[1] = test system: Colo205-LUC-TCF/LEF M1 reporter cell line (Wnt pathway); experiment: Colo205-LUC-TCF/LEF M1 reporter gene (luciferase) inhibition; conditions: 4 hours incubation, luciferase readout
Excerpt: Colo205 cell line (Cell Bank of Chinese Academy of Sciences, Cat #TCHu102) was purchased from the Cell Bank of Chinese Academy of Sciences. After expansion and subculture, in the exponential growth phase of the cells, transfection with lipo3000 liposome transfection with TCF/LEF transcription factors Driven luciferase reporter plasmid (Promega). […] The plasmid carries a resistance gene for resistance screening. Transfection was carried out in 10 cm culture dishes using conventional complete medium without resistance. After 2 days, the medium with resistance was replaced, and the culture was continued. After that, the resistant medium was replaced every 2 days, and the suspended cells were discarded. The original medium was centrifuged to remove cells and debris and retained as an adaptive medium. When the cells covered the culture dish, the cells were digested, counted, and passaged in a 96-well plate, so that the average number of cells contained in each well was 1.5/well, and the adaptive medium was used for passage. The rest of the cells were frozen. After subculture, culture for 4 hours to allow the cells to adhere to the wall, and then observe the number of cells in each well under a microscope. Wells with only 1 cell per well were labeled as monoclonal wells. Afterwards, normal culture was performed, and the culture medium was replaced every 2 days, and observed. There are holes where the monoclonal cells continue to grow in the early stage, and they are labeled twice, and can be replaced with normal resistant medium. When a monoclonal well was overgrown with a 96-well plate, it is digested and passaged to a 24-well culture plate. After the 24-well plate is overgrown, it is passaged to a 96-well plate and a 6-well plate. The cells in a 96-well plate are at least 6 wells, of which 3 wells were added with known Wnt inhibitors, and the other 3 wells were not treated. After 24 hours, the cells in the 96-well plate were added with a fluorescence detection reagent to detect the fluorescence intensity. Cell lines with fluorescent expression when not treated and decreased fluorescent light after inhibition were selected and further cultured. The Colo205-LUC-TCF/LEF-M1 cell line is one of the cell lines screened above. Its growth curve, cell shape, and cell growth state are similar to those of the original Colo205 cells, and the ratio of the fluorescent signals of the inhibitor-treated and untreated cells is the largest among all cell lines, and the ratio can reach 4-5 times when inhibited at 4 hours, which was completely suitable for the screening of Wnt inhibitors in the later stage.
The Colo205-LUC-TCF/LEF M1 cell line is a reporter tool cell stably transfected with the pGL4.49-LUC2-TCF/LEF vector. The β-catenin Wnt pathway is continuously activated. After adding the inhibitor, the Wnt pathway is inhibited. The expression of firefly luciferase regulated by the[…] cis-element decreased, and after adding the detection substrate, the detected light signal decreased accordingly, so as to detect the inhibitory effect of the compound.
To a 96-well cell culture plate, add 100 uL of the compound with a maximum concentration of 20 uM to each well, and make a 3-fold serial dilution of the compound concentration. Then 10,000 colo205 cells stably transfected with the reporter gene and 100 uL medium were inoculated into each well, and corresponding positive and negative control wells were made at the same time. Put the cells in a 5% CO2 incubator and incubate at 37° C. for 4 hours. After 4 hours, remove the culture medium, add 100 uL of reagent (Promega) containing the corresponding firefly luciferase substrate to each well, and measure the activity of luciferase reporter gene. Luminescence intensity was read with SpectraMax in full wavelength mode. […]

Colo205 = experiment: Proliferation inhibition, Wnt mutant cell line Colo205; conditions: Homo sapiens, COLO 205; Colo205, Wnt pathway-dependent, 96 hours; read-out: Antiproliferative IC50 Colo205
Excerpt: (§1) The cell lines used in the experiment are Colo205 and DU4475 cell lines whose Wnt pathway is continuously activated and whose proliferation is Wnt pathway-dependent; while the BELA and RKO cell lines, whose Wnt pathway is not activated under normal circumstances and the proliferation is independent of Wnt pathway, as control cell lines. It is Judged that the inhibitory effect of the compound of the present invention on Wnt-dependent proliferation is not caused by other non-specific toxicity.
(§2) Treat the Colo205, Du4475, HELA and RKO cell lines cultured in their respective mediums in the logarithmic growth phase, collect the cells and prepare a uniform cell suspension of known concentration, and then add it to the 96-well cell culture plate Cell suspension, so that each well contains 1000 cells. Put it into a 5% CO2 incubator and incubate at 37° C. for 20-24 h. On the second day, the fully dissolved, 3-fold serially diluted compound was added to each cell culture well, so that the final maximum concentration in the cell culture well was 20 uM, and the culture was continued for 96 hours. In this test, Promega's cell viability detection test is used for detection. The more the cells proliferate, the stronger the final signal intensity will be. The detection instrument is SpectraMax, full wavelength mode. The wells only added with DMSO were used as positive control wells, and the wells that were not inoculated with cells were used as negative control wells. […] The IC50 value of cell proliferation inhibition was used to evaluate the inhibitory effect of the compound on the Wnt pathway and the toxic effect on normal cells (Table 2).

RKO = experiment: Proliferation inhibition, non-Wnt mutant control cell line RKO; conditions: Homo sapiens, Wnt-independent control cell line, 96 hours, read-out: Antiproliferative IC50 RKO
Excerpt: as §1, §2

HepG2 = experiment: Proliferation inhibition, HepG2 cell line; conditions: Homo sapiens; HepG2 cells, 96 hours culture, cell viability detection; read-out: Antiproliferative IC50 HepG2
Excerpt: The cell lines used in the test are NCI-H929 and HepG2 cell lines whose Wnt pathway is continuously activated and whose proliferation is Wnt pathway-dependent; the inhibitory effect of the compound of the present invention on Wnt-dependent proliferation is judged.
Treat the NCI-H929 and HepG2 cell lines cultured in their respective mediums in the logarithmic growth phase, collect the cells and prepare a uniform cell suspension of known concentration, and then add the cell suspension to the 96-well cell culture plate solution so that each well contains 4000 cells. Put it into a […] incubator and incubate at 37° C. for 20-24 h. On the second day, the fully dissolved, 3-fold serially diluted compound was added to each cell culture well, so that the final maximum concentration in the cell culture well was 20 uM, and the culture was continued for 96 hours. In this test, Promega's cell viability detection test is used for detection. The more the cells proliferate, the stronger the final signal intensity will be. The detection instrument is SpectraMax, full wavelength mode. The wells only added with DMSO were used as positive control wells, and the wells that were not inoculated with cells were used as negative control wells. […] The IC50 value of cell proliferation inhibition was used to evaluate the inhibitory effect of the compound on the Wnt pathway and the toxic effect on normal cells (Table 3).

DU4475 = experiment: Proliferation inhibition, Wnt mutant cell line DU4475; conditions: Homo sapiens, DU-4475; DU4475, Wnt pathway-dependent, 96 hours; read-out: Antiproliferative IC50 DU4475
Excerpt: as §1, §2

## CN1c2nc(NCc3ccc(Oc4cnc(C(F)(F)F)nc4)nc3)nc3c2N(CCC3)C(=O)C1CC(F)(F)F (stereo not drawn) [198 (W307)]
[1]
  IC50: 17 nM
Colo205
  IC50: 8.8 nM
RKO
  IC50: > 10000 nM
HepG2
  IC50: 2.3 nM

## O=C1[C@@H]2CCCN2c2nc(NCc3ccc(Oc4cnc(C(F)(F)F)nc4)nc3)nc3c2N1CCC3 [157 (W262)]
[1]
  IC50: 24 nM
Colo205
  IC50: 31 nM
DU4475
  IC50: 18 nM
RKO
  IC50: > 10000 nM

## C[C@H]1C(=O)N2CCCc3nc(NCc4cnn(Cc5cc(C(F)(F)F)nn5C5CC5)c4)nc(c32)N1C [230 (W415)]
Colo205
  IC50: 42 nM
RKO
  IC50: > 10000 nM
HepG2
  IC50: 50.8 nM

## C[C@H]1C(=O)N2CCCc3nc(NCc4ccc(Cc5ccc(C(F)(F)F)cc5)nc4)nc(c32)N1C [138 (W271), (S)-4,5-dimethyl-2-(((6-(4-(trifluoromethyl)benzyl)pyridin-3-yl)methyl)amino)-4,5,9, 10-tetrahydro-6H,8H-pyrido[3,2,1-de]pteridin-6-one]
[1]
  IC50: 25 nM
Colo205
  IC50: 48 nM
DU4475
  IC50: 40 nM
RKO
  IC50: > 10000 nM

## C[C@H]1C(=O)N2CCCc3nc(NCc4ccc(OC5CCC(F)(F)CC5)nc4)nc(c32)N1C [98 (W188)]
Colo205
  IC50: 31 nM
DU4475
  IC50: 31 nM
RKO
  IC50: > 10000 nM

## COC[C@H]1C(=O)N2CCCc3nc(NCc4ccc(Oc5cnc(C(F)(F)F)nc5)nc4)nc(c32)N1C [154 (W258)]
[1]
  IC50: 30 nM
Colo205
  IC50: 37 nM
DU4475
  IC50: 30 nM
RKO
  IC50: > 10000 nM

## O=C1[C@@H]2COCCN2c2nc(NCc3ccc(Oc4ccc(C(F)(F)F)nc4)nc3)nc3c2N1CCC3 [124 (W278), (S)-2-(((6-((6-(trifluoromethyl)pyridin-3-yl)oxo)pyridin-3-yl)methyl)amino)-5,6,8a,9, 11,12-Hexahydro-4H,8H-[1,4]oxazino[3,4-h]pyrido[3,2,1-de]pteridin-8-one]
Colo205
  IC50: 152 nM
DU4475
  IC50: 51 nM
RKO
  IC50: > 10000 nM

## COc1nc(C(F)(F)F)ccc1Oc1ccc(CNc2nc3c4c(n2)N(C)[C@@H](C)C(=O)N4CCC3)cn1 [231 (W417)]
[1]
  IC50: < 0.5 nM
Colo205
  IC50: 1.6 nM
RKO
  IC50: > 10000 nM
HepG2
  IC50: < 0.5 nM

## COC[C@H]1Cn2ccc3nc(NCc4ccc(OC5CCC(F)(F)CC5)nc4)nc(c32)N1C [85 (W132)]
[1]
  IC50: 7 nM
Colo205
  IC50: 8.3 nM
DU4475
  IC50: 11.6 nM
RKO
  IC50: 5500 nM

## CN1c2nc(NCc3ccc(Oc4cc(C(F)(F)F)nn4C4CCOC4)nc3)nc3c2N(CCC3)C(=O)[C@]1(C)CO (stereo partly drawn) [234 (W420)]
Colo205
  IC50: 51 nM
RKO
  IC50: > 10000 nM
HepG2
  IC50: 66.2 nM

## CN1c2nc(NCc3ccc(Oc4cnc(C(F)(F)F)nc4)nc3)nc3c2N(CCC3)C(=O)[C@@H]1c1cccc(F)c1 [174 (W314)]
Colo205
  IC50: 66 nM
DU4475
  IC50: 37 nM
RKO
  IC50: > 10000 nM

## C[C@H]1C(=O)N2CCCc3nc(NCc4cnc(Oc5ccc(C(F)(F)F)nc5)c(C#N)c4)nc(c32)N1C [238 (W426)]
[1]
  IC50: 27.3 nM
Colo205
  IC50: 24.6 nM
RKO
  IC50: > 10000 nM
HepG2
  IC50: 25.8 nM

## CO[C@@H](C)[C@H]1C(=O)N2CCCc3nc(NCc4ccc(Oc5ccc(C(F)(F)F)nc5)nc4)nc(c32)N1C [113 (W247), (S)-5-((S)-1-methoxyethyl)-4-methyl-2-(((6-((6-(trifluoromethyl)pyridin-3-yl)oxo)pyridin-3-yl)methyl)amino)-4,5,9,10-tetrahydro-6H,8H-pyrido[3,2,1-de]pteridin-6-one]
[1]
  IC50: 31 nM
Colo205
  IC50: 48 nM
DU4475
  IC50: 64 nM
RKO
  IC50: > 10000 nM

## CC(C)[C@H]1C(=O)N2CCCc3nc(NCc4ccc(Cn5ccc(C(F)(F)F)n5)nc4)nc(c32)N1C [148 (W250)]
[1]
  IC50: 31 nM
Colo205
  IC50: 27 nM
DU4475
  IC50: 13 nM
RKO
  IC50: > 10000 nM

## CO[C@H](C)[C@H]1C(=O)N2CCCc3nc(NCc4ccc(Oc5cnc(C(F)(F)F)nc5)nc4)nc(c32)N1C [156 (W264)]
[1]
  IC50: 39 nM
Colo205
  IC50: 27 nM
DU4475
  IC50: 13 nM
RKO
  IC50: > 10000 nM

## CC(C)[C@H]1C(=O)N2CCCc3nc(NCc4ccc(Oc5cnc(C(F)(F)F)nc5)nc4)nc(c32)N1C [159 (W259)]
[1]
  IC50: 2 nM
Colo205
  IC50: 4.6 nM
DU4475
  IC50: < 0.5 nM
RKO
  IC50: > 10000 nM

## CN1c2nc(NCc3ccc(Oc4ccc(C(F)(F)F)nc4)nc3)nc3c2N(CCC3)C(=O)[C@@H]1C(C)(C)O [122 (W272), (S)-5-(2-hydroxypropan-2-yl)-4-methyl-2-(((6-((6-(trifluoromethyl)pyridin-3-yl)oxo)pyridine-3-yl)methyl)amino)-4,5,9,10-tetrahydro-6H,8H-pyrido[3,2,1-de]pteridin-6-one]
Colo205
  IC50: 87 nM
DU4475
  IC50: 58 nM
RKO
  IC50: > 10000 nM

## CN1c2nc(NCc3ccc(Oc4ccc(C(F)(F)F)nc4)nc3)nc3c2N(CCC3)C(=O)[C@@H]1C(F)(F)F [185 (W310)]
[1]
  IC50: 69 nM
Colo205
  IC50: 63 nM
DU4475
  IC50: 99 nM
RKO
  IC50: > 10000 nM

## [2H]C([2H])([2H])OC[C@H]1C(=O)N2CCCc3nc(NCc4ccc(Oc5cnc(C(F)(F)F)nc5)nc4)nc(c32)N1C([2H])([2H])[2H] [132 (W383), (S)-5-((methoxy-d3)methyl)-4-(methyl-d3)-2-(((6-((2-(trifluoromethyl)pyrimidin-5-yl)oxo)pyridin-3-yl)methyl)amino)-4,5,9,10-tetrahydro-6H,8H-pyrido[3,2,1-de]pteridin-6-one]
[1]
  IC50: 42 nM
Colo205
  IC50: 25 nM
RKO
  IC50: > 10000 nM

## CN1c2nc(NCc3ccc(Oc4cnc(C(F)(F)F)nc4)nc3)nc3c2N(CCC3)C(=O)[C@@H]1C(C)(C)O [145 (W331)]
Colo205
  IC50: 43 nM
DU4475
  IC50: 53 nM
RKO
  IC50: > 10000 nM

## CN1c2nc(NCc3ccc(Oc4ccc(C(F)(F)F)nc4)nc3)nc3c2N(CCC3)C(=O)[C@@H]1C1CCOCC1 [219 (W338)]
[1]
  IC50: 31 nM
Colo205
  IC50: 10 nM
RKO
  IC50: > 10000 nM
